The text below walks through data of PMC4959829 (Biochemical Pharmacology, 2016).

Where two headings read alike, the source gives them in different places.

The test system of data set [1] is hERG (WT). The conditions noted are these: cited from earlier work.
Data set [2] relates to hERG (WT). Briefly: Literature IhERG block, WT hERG in Xenopus oocytes. Type of data set: cell-based. The following applies: human, Xenopus oocytes expressing WT hERG; Oocyte, room temperature; estimated from single dose data with Hill equation, h = 1; read-out: WT IC50 (estimated).
For data set [3], the system named is hERG (WT). The following applies: cited from earlier work. The source holds these as a separate data set.
Data set [4] deals with Y652A hERG (Homo sapiens, UniProt Q12809, Y652A). The conditions noted are these: cited from earlier work.
Chain of Y652A hERG (Q12809 whole entry Y652A): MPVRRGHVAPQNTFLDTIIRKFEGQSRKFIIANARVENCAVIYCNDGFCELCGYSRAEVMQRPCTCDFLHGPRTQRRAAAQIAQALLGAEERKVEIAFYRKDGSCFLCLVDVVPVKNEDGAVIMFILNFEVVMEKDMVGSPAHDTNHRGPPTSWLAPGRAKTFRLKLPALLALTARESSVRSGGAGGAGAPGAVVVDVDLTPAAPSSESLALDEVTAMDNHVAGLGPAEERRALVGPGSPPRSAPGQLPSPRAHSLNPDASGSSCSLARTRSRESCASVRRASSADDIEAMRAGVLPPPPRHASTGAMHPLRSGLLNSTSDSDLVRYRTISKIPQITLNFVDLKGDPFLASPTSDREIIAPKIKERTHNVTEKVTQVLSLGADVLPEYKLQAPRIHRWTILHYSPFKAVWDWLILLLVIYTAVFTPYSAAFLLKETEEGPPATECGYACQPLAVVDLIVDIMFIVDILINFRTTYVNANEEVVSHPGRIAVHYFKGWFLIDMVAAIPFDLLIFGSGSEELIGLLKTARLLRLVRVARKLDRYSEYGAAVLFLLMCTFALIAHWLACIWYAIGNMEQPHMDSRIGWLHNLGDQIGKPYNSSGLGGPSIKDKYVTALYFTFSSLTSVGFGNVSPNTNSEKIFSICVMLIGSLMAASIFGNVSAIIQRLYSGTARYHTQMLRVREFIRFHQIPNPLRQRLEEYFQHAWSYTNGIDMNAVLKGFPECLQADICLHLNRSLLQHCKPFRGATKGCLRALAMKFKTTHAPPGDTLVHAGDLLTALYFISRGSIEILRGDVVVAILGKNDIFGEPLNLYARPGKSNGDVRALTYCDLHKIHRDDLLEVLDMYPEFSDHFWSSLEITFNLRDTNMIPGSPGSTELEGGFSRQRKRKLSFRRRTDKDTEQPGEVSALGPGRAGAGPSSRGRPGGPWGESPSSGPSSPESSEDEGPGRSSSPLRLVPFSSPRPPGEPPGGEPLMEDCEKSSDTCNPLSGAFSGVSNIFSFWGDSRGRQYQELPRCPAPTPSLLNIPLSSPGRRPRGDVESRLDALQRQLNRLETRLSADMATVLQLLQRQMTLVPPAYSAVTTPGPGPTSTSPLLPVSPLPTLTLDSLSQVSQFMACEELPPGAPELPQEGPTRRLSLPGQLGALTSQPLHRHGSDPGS
Data set [5] deals with F656A hERG (Homo sapiens, UniProt Q12809, F656A). The following applies: cited from earlier work.
Chain of F656A hERG (Q12809 whole entry F656A): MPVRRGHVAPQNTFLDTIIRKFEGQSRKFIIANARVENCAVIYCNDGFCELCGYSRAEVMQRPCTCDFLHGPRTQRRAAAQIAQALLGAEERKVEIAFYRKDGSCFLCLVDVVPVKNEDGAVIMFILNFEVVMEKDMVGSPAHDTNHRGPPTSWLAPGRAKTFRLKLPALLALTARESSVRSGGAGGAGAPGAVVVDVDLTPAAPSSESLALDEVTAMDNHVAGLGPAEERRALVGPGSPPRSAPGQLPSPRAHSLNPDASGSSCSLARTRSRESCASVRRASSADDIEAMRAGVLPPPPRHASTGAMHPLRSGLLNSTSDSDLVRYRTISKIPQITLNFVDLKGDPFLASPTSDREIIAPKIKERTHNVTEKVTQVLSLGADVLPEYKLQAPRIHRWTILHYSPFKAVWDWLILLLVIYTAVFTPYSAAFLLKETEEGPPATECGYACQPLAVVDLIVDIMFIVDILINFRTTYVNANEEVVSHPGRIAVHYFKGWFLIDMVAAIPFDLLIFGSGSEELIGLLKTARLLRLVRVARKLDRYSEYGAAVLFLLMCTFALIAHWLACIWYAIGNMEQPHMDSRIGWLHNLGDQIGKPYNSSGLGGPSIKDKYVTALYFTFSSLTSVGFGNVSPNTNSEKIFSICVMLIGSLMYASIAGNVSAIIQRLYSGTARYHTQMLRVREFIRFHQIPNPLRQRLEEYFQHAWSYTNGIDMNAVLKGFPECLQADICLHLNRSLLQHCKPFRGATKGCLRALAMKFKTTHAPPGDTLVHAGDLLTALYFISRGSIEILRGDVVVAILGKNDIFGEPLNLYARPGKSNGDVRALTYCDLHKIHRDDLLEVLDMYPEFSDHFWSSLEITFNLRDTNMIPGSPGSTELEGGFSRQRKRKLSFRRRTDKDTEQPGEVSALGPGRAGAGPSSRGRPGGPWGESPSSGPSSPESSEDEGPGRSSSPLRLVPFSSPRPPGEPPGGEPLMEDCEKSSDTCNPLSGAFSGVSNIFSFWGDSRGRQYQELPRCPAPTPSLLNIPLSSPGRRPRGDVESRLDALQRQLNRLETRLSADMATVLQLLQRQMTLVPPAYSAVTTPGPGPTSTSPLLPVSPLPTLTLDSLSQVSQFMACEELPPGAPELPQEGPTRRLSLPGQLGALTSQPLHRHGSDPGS
Where [6] appears, read: read-out: WT IC50, Oocyte, room temperature.

With `CCCCCCC[N+](CC)(CC)CCCCc1ccc(Cl)cc1` [Clofilium], the IC50 in data set [1] (setting [6]) is 30 nM.

Consider `CCCCCCCN(CC)CCCC(O)c1ccc(NS(C)(=O)=O)cc1` (stereo not drawn) [Ibutilide], for which the IC50 in data set [1] (setting [6]) was […].

`CN(CCOc1ccc(NS(C)(=O)=O)cc1)CCc1ccc(NS(C)(=O)=O)cc1` [Dofetilide, dofetilide]: the potency estimated from few doses in data set [2] was […].

In the case of `O=C1Cc2cc(CCN3CCN(c4nsc5ccccc45)CC3)c(Cl)cc2N1` [Ziprasidone], the IC50 is 120 nM in data set [3] (HEK293, 37 °C, read-out: WT IC50) and 2800 nM in data set [1]. Moreover, the “IC50 fold increase (mutant IC50/WT IC50), Y652A” value in data set [4] is 140 fold. Moreover, the “IC50 fold increase (mutant IC50/WT IC50), F656A” value in data set [5] is 357 fold.

Regarding `CCCCc1oc2ccccc2c1C(=O)c1cc(I)c(OCCNCC)c(I)c1` [desethyl-amiodarone], the IC50 in data set [3] (metabolite DEA, read-out: IhERG IC50) is about 160 nM.

For `COc1cc(N)c(Cl)cc1C(=O)NC1CCN(CCCOc2ccc(F)cc2)CC1OC` (stereo not drawn) [Cisapride], in data set [1], the IC50 was […].
